Measurements as given in publication PMC8639922, “KSHV transactivator-derived small peptide traps coactivators to attenuate MYC and inhibits leukemia and lymphoma cell growth” (Communications Biology, 2021).
Square brackets hold non-standard residues; d marks the D form. Peptide text beside a SMILES is read from it. Orn = NCCC[C@H](N)C(=O)O; βAla = NCCC(=O)O

Assays:
KSHV PAN RNA in BC-1 = test: KSHV PAN RNA qRT-PCR (reactivation); type: cell-based; settings: BC-1, 16 μM, 24 h
Experimental: (§1) Because VGN50 is derived from the KSHV transactivator sequence, we next examined if VGN50 can inhibit KSHV lytic replication by competitively blocking the coactivator binding to K-Rta. To study this, we used the TREx-K-Rta BCBL-1 cell line, in which we can trigger the expression of exogenous Flag-tagged K-Rta in a doxycycline (Dox) inducible manner. TREx-K-Rta BCBL-1 cells were treated with […] VGN50 or mutant peptide, with or without Dox induction. We used approximately one-half of the IC50 concentration of VGN50 to treat the TREx-K-Rta BCBL-1 cells in order to avoid cell toxicity effects that would non-specifically decrease viral gene expression. KSHV gene expression was profiled with a KSHV genome-wide PCR array, using ribosomal rRNA for normalization and as an internal control. Fold activation relative to the uninduced Mut-P-treated sample (not induced: Dox -) was determined and a heatmap for KSHV lytic gene expression was generated (Fig. 3a). […] Immunoblotting was used to confirm the induction of lytic replication by Dox based on exogenous K-Rta protein (Flag-K-Rta) and the expression of two other KSHV lytic proteins (ORF57 and K-bZIP) along with actin and KSHV LANA protein as controls for equal loading and similar viral copy numbers in samples, respectively (Fig. 3b).
(§2) Fig. 3 Effects of VGN50 on KSHV gene transcription and VGN50 binding with SWI/SNF components. a KSHV qRT-PCR array analysis was used to study effects of VGN50 on KSHV gene transcription in a genome-wide manner. Uninduced (−; no doxycycline added) or dox-induced (+; 1 μg/ml) cells were treated with VGN50 or the mutant peptide (Mut-P) at a concentration of 24 μM. Samples were collected at 24 h post-treatment. Expression in uninduced cells was set as 1 for each viral gene and expression shown as fold activation relative to no-Dox samples. Selected cellular genes were also included in the PCR array for comparison. 18S ribosomal RNA was used as an internal control. b KSHV protein expression. Immunoblotting was performed to confirm both endogenous and exogenous K-Rta expression before (not induced) and after induction by Dox treatment (Dox-induced). Latent KSHV protein LANA and actin were used as controls for KSHV copy number (LANA) and loading (actin), respectively. Protein samples were collected 48-h post Dox incubation. c KSHV reactivation by VGN50 incubation. BCBL-1 and BC-1 cell lines were treated with VGN50 (16 μM concentration) and total RNA harvested at 24 h post treatment. KSHV PAN RNA expression was examined by qRT-PCR and relative expression over 18S rRNA is shown. Data are presented as mean ± SD (n = 3). d Purification of recombinant SWI/SNF components. SDS-PAGE analysis of five SWI/SNF components individually prepared from baculovirus-infected Sf9 cells. e A schematic illustration of ELISA assay to evaluate VGN50 and SWI/SNF interaction. f Analysis of VGN50 binding to SWI/SNF components by ELISA. Increasing concentrations of biotin-conjugated VGN50 or Mut-P were incubated in duplicate in an ELISA plate coated with each SWI/SNF component. Peptide binding measured as OD values at 450 nm are shown. Mean OD values were compared between the VGN50 and Mut-P in each concentration using unpaired t-test. **p < 0.01, *p < 0.05, NS no significance. Data are presented as mean ± SD with duplicated samples and repeated three times with different purified protein preps.

KSHV PAN RNA in BCBL-1 = test: KSHV PAN RNA qRT-PCR (reactivation); type: cell-based; settings: BCBL-1, 16 μM, 24 h
Experimental: as §1, §2

`CC(C)C[C@H](NC(=O)CCNC(=O)[C@H](CCCNC(=N)N)NC(=O)[C@H](CCCNC(=N)N)NC(=O)[C@H](CCCNC(=N)N)NC(=O)[C@H](CCCN)NC(=O)[C@H](CCCNC(=N)N)NC(=O)[C@H](CCCNC(=N)N)NC(=O)[C@H](CCCCN)NC(=O)[C@H](CCCCN)NC(=O)[C@H](N)CCCNC(=N)N)C(=O)N[C@@H](CO)C(=O)N[C@@H](CO)C(=O)N[C@@H](C)C(=O)N[C@@H](C)C(=O)N[C@@H](C)C(=O)NCC(=O)N[C@@H](CC(C)C)C(=O)N[C@@H](Cc1ccc(O)cc1)C(=O)N[C@@H](CCC(N)=O)C(=O)N[C@@H](CC(C)C)C(=O)N[C@@H](CC(=O)O)C(=O)N[C@H](C(=O)O)[C@@H](C)O` [Mt-P] (H-[dR]KKRR[Orn]RRR[βAla]LSSAAAGLYQLDT-OH; N-terminus and C-terminus assumed) was tested, and the “KSHV PAN RNA relative expression over 18S rRNA” value (“KSHV PAN RNA relative expression” below) (KSHV PAN RNA in BC-1; replicate 1) was 1.419e-5, the “KSHV PAN RNA relative expression” value (KSHV PAN RNA in BC-1; replicate 2) was 1.503e-5 and the “KSHV PAN RNA relative expression” value (KSHV PAN RNA in BC-1; replicate 3) was 1.204e-5. For the same compound, the “KSHV PAN RNA relative expression” value (KSHV PAN RNA in BCBL-1; replicate 1) was 0.0001238, the “KSHV PAN RNA relative expression” value (KSHV PAN RNA in BCBL-1; replicate 2) was 0.0001335 and the “KSHV PAN RNA relative expression” value (KSHV PAN RNA in BCBL-1; replicate 3) was 0.0001325.
